From patent US20240041970A1, “TRADITIONAL CHINESE HERBAL COMPOSITION FOR TREATING ALLERGIC CONJUNCTIVITIS AND/OR ALLERGIC RHINITIS” (EYE HOSPITAL, CHINA ACADEMY OF CHINESE MEDICAL SCIENCES, priority 2021, published 2024)

How the values were obtained:
allergic conjunctivitis = test: Clinical efficacy: ocular symptoms and signs (effective rate); type: in vivo, human; settings: 1-week treatment, oral
Text: (§1) From May 10, 2021 to Aug. 23, 2021, 36 patients diagnosed with allergic conjunctivitis complicated and allergic rhinitis were collected from Eye Hospital, China Academy of Chinese Medical Sciences, and they were divided into 2 groups according to a random number table method with 20 cases in the treatment group and 16 cases in the control group.
(§2) The treatment group was orally administered with the water decoction prepared in Example 1 with one dose a day and for twice a day, and the control group was orally administered with 10 mg of cetirizine capsules once a day.
(§3) 2. Evaluation Indexes: • 1) Ocular and nasal symptoms and signs were standardly divided into 4 grades (0: none, 1: mild: 2: moderate: and 3: severe); • 2) Systemic adverse reactions and local adverse reactions in the eyes and nose were recorded.
Eye itching: (1) none; (2) mild: the patient won't notice eye itching when busy at work, but can feel itching when free, or has intermittent eye itching, but it's not severe enough to need to be scratched with hand; (3) moderate: the patient has obvious eye itching, and can still tolerate this symptom, but has the desire to scratch it with hand; and (4) severe: the patient has very obvious and continuous eye itching and stabbing pain, and cannot tolerate these symptoms, and therefore normal life is affected.
Conjunctival congestion: (1) none; (2) mild: congestion takes place in palpebral conjunctiva and fornix in a reticular form; (3) moderate: congestion takes place in palpebral conjunctiva, fornix and bulbar conjunctiva in a reticular form; and (4) severe: congestion takes place in palpebral conjunctiva in a form of red patches, blood vessels are blurred, and obvious congestion takes place in fornix and bulbar conjunctiva;
Conjunctival edema: (1) none; (2) bulbar conjunctival edema can be seen under a slit lamp examination; (3) moderate; bulbar conjunctival edema can be directly seen under natural light; and (4) severe: bulbar conjunctival edema with vesicular protuberances; […]

allergic rhinitis = test: Clinical efficacy: nasal symptoms and signs (effective rate); type: in vivo, human; settings: 1-week treatment, oral
Text: as §1, §2, §3
Rhinocnesmus: (1) none; (2) mild and intermittent; (3) moderate: an ant walking sensation that can be tolerated; and (4) severe: an ant walking sensation that cannot be tolerated.
Sneezing (number of consecutive sneezings): (1) none; (2) mild: 3-9; (3) moderate: 10-14; (4) severe: ≥15.
Nose running (number of nose blowings per day): (1) none; (2) mild: =4; (3) moderate: 5-9; (4) severe ≥10.
The effective rate evaluation method is based on standards established in Clinical Development Guidelines for Pharmaceutical Products for Treatment of Allergic Rhinoconjunctivitis published by the European Medicines Agency, Chinese Expert Consensus on Diagnosis and Treatment of Allergic Conjunctivitis by Chinese Journal of Ophthalmology, 2018, and Guidelines for Diagnosis and Treatment of Allergic Rhinitis (Chinese Journal of Otorhinolaryngology Head and Neck Surgery, 2016. Vol. 51), and is divided into 4 grades (0: none; 1: mild; 2: moderate; and 3: severe), and it is considered effective if two symptoms (or signs) are improved by one grade or more, or same symptom (or sign) is improved by two grades or more. ((2) to (1), (3) to (2) or (4) to (3) represents a one-grade improvement, and (3) to (1) represents a two-grade improvement).

O=C(O)COCCN1CCN(C(c2ccccc2)c2ccc(Cl)cc2)CC1 (stereo not drawn) [cetirizine]
Effective Rate (ocular efficacy) (allergic conjunctivitis): 68.75% | Effective (ocular efficacy) (allergic conjunctivitis; number of patients): 11 | Ineffective (ocular efficacy) (allergic conjunctivitis; number of patients): 5 | Effective Rate (nasal efficacy) (allergic rhinitis): 75.0% | Effective (nasal efficacy) (allergic rhinitis; number of patients): 12 | Ineffective (nasal efficacy) (allergic rhinitis; number of patients): 4
